Reference: BindingDB's records for doi:10.1074/jbc.M113.497990 (Vanderbilt University, 2013)

What was measured:
Cytochrome P450 1A2 = biological target: T1, Cytochrome P450 1A2 (Homo sapiens, UniProt P05177); experiment: CYP Activity Assay; conditions: 37 °C
T1 sequence (P05177 whole entry): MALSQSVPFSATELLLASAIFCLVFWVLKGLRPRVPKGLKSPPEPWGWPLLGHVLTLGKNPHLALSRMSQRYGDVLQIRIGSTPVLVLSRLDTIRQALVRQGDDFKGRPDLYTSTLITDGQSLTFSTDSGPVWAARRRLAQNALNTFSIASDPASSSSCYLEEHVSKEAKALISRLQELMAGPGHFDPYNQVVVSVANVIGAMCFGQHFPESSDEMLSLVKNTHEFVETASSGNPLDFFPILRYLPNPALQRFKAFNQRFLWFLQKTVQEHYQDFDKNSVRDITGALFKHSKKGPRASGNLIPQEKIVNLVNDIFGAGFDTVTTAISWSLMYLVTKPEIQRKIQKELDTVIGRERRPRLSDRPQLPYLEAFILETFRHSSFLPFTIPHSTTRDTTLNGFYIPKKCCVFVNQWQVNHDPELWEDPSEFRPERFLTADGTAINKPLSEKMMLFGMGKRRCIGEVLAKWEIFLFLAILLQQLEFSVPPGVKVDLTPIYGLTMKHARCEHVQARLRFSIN
Protocol: (§1) Inhibition of hepatic cytochromes P450 was assessed in human liver microsomes using a substrate-specific approach of monitoring metabolites formed by each specific CYP enzyme. Metabolic reactions included phenacetin-O-deethylation (1A2), tolbutamide methylhydroxylation (2C9), S-mephenytoin 4'-hydroxylation (2C19), dextrome-thorphan-[…] (2D6), and testosterone-6-β-hydroxylation (3A4). Each substrate was added at a concentration less than or equal to the Km for themetabolic pathway, and microsomal protein concentrations and assay incubation times were optimized for each reaction to ensure linear metabolite formation based on initial rates (Table 1). Microsomes were suspended in phosphate buffer and incubated at 37 °C in the presence of probe substrates. Reactions were initiated by the addition of an NADPH-regenerating buffer system and were quenched at the appropriate times using acetonitrile. Samples were centrifuged and concentrations of metabolites assessed by LC/MS.

Cytochrome P450 2C19 = Cytochrome P450 2C19 (Homo sapiens, UniProt P33261); experiment: CYP Activity Assay; conditions: 37 °C
Sequence of Cytochrome P450 2C19 (P33261 whole entry): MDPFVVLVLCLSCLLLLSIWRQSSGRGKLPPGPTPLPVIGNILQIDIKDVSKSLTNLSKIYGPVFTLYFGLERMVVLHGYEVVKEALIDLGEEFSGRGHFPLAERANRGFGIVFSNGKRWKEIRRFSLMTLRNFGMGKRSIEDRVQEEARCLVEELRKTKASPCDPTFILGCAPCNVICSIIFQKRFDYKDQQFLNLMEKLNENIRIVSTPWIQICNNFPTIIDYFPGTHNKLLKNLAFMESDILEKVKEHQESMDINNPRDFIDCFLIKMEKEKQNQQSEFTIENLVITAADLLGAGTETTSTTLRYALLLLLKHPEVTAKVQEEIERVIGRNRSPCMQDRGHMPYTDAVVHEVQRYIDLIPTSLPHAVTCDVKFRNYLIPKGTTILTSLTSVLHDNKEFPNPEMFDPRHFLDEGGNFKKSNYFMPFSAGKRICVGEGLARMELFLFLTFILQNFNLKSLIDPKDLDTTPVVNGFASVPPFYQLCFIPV
Protocol: as §1

Cytochrome P450 2C9 = Cytochrome P450 2C9 (Homo sapiens, UniProt P11712); experiment: CYP Activity Assay; conditions: 37 °C
Sequence of Cytochrome P450 2C9 (P11712 whole entry): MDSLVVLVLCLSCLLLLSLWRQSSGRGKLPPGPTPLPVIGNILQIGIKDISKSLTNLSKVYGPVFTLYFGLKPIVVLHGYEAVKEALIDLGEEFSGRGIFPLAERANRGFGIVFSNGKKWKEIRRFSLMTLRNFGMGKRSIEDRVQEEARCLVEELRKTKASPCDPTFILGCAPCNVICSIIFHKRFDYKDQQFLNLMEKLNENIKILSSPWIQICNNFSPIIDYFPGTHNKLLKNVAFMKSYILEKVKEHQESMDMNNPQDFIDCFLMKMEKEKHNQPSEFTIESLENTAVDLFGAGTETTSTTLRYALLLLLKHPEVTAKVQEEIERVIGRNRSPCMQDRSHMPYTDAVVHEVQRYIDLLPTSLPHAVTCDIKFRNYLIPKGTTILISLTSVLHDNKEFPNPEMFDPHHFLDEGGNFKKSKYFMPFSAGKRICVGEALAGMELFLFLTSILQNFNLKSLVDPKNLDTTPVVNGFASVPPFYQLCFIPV
Protocol: as §1

Cytochrome P450 2D6 = Cytochrome P450 2D6 (Homo sapiens, UniProt P10635); experiment: CYP Activity Assay; conditions: 37 °C
Sequence of Cytochrome P450 2D6 (P10635 whole entry): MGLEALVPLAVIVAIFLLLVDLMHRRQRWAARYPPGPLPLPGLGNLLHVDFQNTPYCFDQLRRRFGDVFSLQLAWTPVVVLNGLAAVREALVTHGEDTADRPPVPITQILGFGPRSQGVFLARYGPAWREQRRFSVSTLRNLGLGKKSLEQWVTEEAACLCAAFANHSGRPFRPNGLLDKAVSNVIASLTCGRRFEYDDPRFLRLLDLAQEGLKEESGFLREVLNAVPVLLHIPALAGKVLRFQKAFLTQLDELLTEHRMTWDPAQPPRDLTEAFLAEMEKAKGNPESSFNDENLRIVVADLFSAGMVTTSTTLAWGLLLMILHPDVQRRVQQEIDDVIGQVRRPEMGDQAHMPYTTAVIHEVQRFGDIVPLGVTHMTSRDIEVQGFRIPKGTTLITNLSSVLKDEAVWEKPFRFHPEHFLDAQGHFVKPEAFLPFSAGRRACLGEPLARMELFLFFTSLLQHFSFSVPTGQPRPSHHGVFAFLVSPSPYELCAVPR
Protocol: as §1

[1] = biological target: T2, Lanosterol 14-alpha demethylase (Homo sapiens, UniProt Q16850); experiment: CYP51 Inhibition Assay; conditions: pH 7.4; 37 °C
T2 sequence (Q16850 whole entry): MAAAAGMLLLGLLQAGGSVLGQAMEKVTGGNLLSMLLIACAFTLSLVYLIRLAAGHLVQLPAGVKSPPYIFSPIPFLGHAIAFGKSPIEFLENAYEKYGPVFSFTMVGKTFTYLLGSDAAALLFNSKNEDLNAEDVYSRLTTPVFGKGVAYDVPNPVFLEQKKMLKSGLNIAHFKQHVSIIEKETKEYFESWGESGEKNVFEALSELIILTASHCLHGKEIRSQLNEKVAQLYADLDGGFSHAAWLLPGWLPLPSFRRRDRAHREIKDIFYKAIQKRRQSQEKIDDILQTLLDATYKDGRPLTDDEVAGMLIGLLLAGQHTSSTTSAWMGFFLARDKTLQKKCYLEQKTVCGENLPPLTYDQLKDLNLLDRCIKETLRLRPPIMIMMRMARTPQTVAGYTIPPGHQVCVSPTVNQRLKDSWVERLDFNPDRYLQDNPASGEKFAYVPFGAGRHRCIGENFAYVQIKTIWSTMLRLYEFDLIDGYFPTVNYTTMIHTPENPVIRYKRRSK
Protocol: (§2) Briefly, the reaction mixture contained 1 uM CYP51, 2 uM cytochrome P450 reductase, 100 uM dilauroyl-alpha-phosphatidylcholine, 0.4 mg/ml isoctrate dehydrogenase, and 25mM sodium isocitrate in 20mM MOPS (pH 7.4), 50 mM KCl, 5 mM MgCl2, and 10% glycerol. After the addition of the 3H-radiolabeled sterol substrate (~2000 cpm/nmol, final concentration 50 uM) the mixture was preincubated for 5 min at 37 °C in a shaking water bath (GCA Precision Scientific). The reaction was initiated by the addition of 100 uM NADPH and stopped by extraction of the sterols with ethyl acetate. The reaction products were dried, dissolved in methanol, and analyzed by a reverse-phase HPLC system (Waters) equipped with a beta-RAM detector (INUS Systems, Inc.) using a Nova-Pak C18 column (particle size 4 uM, 3.9 x 150 mm) and a linear gradient consisting of water:acetonitrile:methanol (1.0:4.5:4.5) (solvent A) and methanol (solvent B) at a flow rate of 1 ml/min.

[2] = biological target: Putative lanosterol 14-alpha-demethylase (Leishmania infantum, UniProt A2TEF2); experiment: CYP51 Inhibition Assay; conditions: pH 7.4; 37 °C
Sequence of Putative lanosterol 14-alpha-demethylase (A2TEF2 whole entry): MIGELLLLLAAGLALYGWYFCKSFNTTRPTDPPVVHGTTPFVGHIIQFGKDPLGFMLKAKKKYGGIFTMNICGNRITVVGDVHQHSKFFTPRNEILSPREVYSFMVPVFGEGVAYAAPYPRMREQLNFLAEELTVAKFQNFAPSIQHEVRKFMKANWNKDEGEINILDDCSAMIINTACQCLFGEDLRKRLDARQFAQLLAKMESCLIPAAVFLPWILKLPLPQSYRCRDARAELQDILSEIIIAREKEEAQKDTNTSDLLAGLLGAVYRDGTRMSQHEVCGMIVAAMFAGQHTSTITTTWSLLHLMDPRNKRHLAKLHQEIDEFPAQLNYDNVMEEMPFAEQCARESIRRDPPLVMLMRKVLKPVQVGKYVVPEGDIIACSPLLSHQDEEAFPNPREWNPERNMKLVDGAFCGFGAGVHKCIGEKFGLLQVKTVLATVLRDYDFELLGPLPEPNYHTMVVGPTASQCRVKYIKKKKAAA
Protocol: as §2

[3] = biological target: Sterol 14-alpha demethylase (Trypanosoma cruzi (strain CL Brener), UniProt Q7Z1V1); experiment: CYP51 Inhibition Assay; conditions: pH 7.4; 37 °C
Sequence of Sterol 14-alpha demethylase (Q7Z1V1 whole entry): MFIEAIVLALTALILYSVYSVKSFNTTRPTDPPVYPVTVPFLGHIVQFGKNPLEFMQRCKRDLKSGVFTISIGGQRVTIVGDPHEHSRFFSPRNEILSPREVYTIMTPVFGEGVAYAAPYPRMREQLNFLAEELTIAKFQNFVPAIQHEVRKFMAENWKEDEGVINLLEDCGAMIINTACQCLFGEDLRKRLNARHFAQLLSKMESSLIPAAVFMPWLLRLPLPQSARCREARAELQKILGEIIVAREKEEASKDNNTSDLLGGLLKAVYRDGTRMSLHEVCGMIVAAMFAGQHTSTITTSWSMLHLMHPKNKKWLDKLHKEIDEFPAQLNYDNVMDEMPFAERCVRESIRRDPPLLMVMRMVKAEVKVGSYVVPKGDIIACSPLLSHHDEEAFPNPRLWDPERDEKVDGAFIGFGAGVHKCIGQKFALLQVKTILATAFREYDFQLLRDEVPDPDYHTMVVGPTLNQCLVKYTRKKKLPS
Protocol: as §2

Cytochrome P450 3A4 = Cytochrome P450 3A4 (Homo sapiens, UniProt P08684); experiment: CYP Activity Assay; conditions: 37 °C
Sequence of Cytochrome P450 3A4 (P08684 whole entry): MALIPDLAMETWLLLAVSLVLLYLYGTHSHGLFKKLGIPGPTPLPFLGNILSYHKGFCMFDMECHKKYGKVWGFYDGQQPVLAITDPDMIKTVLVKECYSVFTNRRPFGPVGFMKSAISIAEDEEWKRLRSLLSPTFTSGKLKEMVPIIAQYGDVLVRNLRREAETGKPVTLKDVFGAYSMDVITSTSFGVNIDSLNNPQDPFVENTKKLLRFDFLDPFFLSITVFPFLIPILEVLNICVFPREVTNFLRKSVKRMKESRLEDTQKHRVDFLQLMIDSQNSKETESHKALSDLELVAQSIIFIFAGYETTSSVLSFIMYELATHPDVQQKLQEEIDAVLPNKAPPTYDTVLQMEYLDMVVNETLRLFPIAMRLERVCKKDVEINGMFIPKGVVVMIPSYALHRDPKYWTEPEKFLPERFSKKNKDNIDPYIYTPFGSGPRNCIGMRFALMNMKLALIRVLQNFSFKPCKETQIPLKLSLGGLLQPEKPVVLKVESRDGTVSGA
Protocol: as §1

Question: What does the source list for FC(F)(F)c1ccc(N(c2cccnc2)C2CCN(c3ccc(C(F)(F)F)cn3)CC2)cc1 [EPL-BS0967 (UDD)]?
Answer: IC50 (Cytochrome P450 1A2): > 20000 nM; IC50 (Cytochrome P450 2C19): 9800 nM; IC50 (Cytochrome P450 2C9): 8100 nM; IC50 (Cytochrome P450 2D6): 20000 nM; Kd [1]: 26 nM; Kd [2]: 419 nM; Kd [3]: 32 nM

Question: O=C([C@@H](c1ccc(Cl)cc1)c1cccnc1)N1CCN(c2ccc(C(F)(F)F)cc2)CC1 [EPL-BS1246 (UDO)] was tested. Which IC50 (Cytochrome P450 1A2) did it give?
Answer: > 20000 nM

Question: What about the IC50 (Cytochrome P450 2C19) of the same compound?
Answer: 12000 nM

Question: And the IC50 (Cytochrome P450 2C9)?
Answer: 9000 nM

Question: And the IC50 (Cytochrome P450 2D6)?
Answer: 4000 nM

Question: What about the IC50 (Cytochrome P450 3A4) of the same compound?
Answer: 20000 nM

Question: What about the Kd [1] of the same compound?
Answer: 69 nM

Question: And the Kd [2]?
Answer: 156 nM

Question: What about the Kd [3] of the same compound?
Answer: 19 nM

Question: Which Kd [2] does the source give for CC[C@@H]([C@H](C)O)n1ncn(-c2ccc(N3CCN(c4ccc(OCC5CO[C@@](Cn6cncn6)(c6ccc(F)cc6F)C5)cc4)CC3)cc2)c1=O (some centres not stated) [Posaconazole] here?
Answer: 18 nM

Question: Which Kd [3] does the source give for O=C(N[C@@H](Cn1ccnc1)c1ccc(Cl)cc1Cl)c1ccc(-c2nnc(-c3ccccc3)o2)cc1 [VNI] here?
Answer: 15 nM
